pIC50: −log10 of the molar value.
How the values were obtained:
AHR [1] = target: T1, AHR (Homo sapiens, UniProt P35869); experiment: In vitro assay 1: AHR-luc transactivation assay, antagonism in human cell line (U87 glioblastoma cells prestimulated with kynurenic acid); format: cell-based
T1 construct: U87 glioblastoma cells (ATCC) endogenously expressing AHR; host or cells: U87 glioblastoma cells, stably transfected with DRE-firefly luciferase and renilla reporter constructs
T1 sequence (P35869 11-848): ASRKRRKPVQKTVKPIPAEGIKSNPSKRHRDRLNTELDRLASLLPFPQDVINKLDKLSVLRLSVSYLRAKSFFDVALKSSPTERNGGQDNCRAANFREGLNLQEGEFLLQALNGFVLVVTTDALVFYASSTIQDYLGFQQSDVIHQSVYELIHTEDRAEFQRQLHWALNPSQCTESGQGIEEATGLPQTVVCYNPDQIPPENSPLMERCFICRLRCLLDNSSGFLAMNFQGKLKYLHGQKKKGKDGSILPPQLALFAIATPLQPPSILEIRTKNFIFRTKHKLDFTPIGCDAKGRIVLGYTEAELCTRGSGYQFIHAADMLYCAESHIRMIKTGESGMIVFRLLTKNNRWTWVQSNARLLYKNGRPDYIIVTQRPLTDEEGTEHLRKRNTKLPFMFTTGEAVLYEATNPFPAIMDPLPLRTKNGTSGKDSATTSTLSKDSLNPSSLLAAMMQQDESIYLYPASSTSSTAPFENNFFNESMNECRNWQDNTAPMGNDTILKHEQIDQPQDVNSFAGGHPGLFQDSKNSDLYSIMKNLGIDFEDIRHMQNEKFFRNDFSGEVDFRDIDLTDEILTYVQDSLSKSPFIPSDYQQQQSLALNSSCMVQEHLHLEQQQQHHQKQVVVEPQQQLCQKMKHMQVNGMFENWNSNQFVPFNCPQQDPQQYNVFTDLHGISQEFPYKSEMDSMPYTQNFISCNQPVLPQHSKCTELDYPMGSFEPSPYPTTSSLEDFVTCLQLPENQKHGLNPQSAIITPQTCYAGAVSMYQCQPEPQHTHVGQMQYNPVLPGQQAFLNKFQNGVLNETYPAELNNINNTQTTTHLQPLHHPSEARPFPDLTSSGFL
Experimental: Transactivation Assay in Human Cell Line (In Vitro Assays 1 and 2)
Transactivation assays were carried out in U87 glioblastoma cells (ATCC) endogenously expressing AHR. In addition the cells were stably transfected with an AHR inducible firefly luciferase reporter gene construct that carried AHR-binding sites (DRE) in its promoter and a renilla reporter gene construct with constitutively active promoter. Kynurenic acid is an endogenous AHR activating ligand and was used to prestimulate test cells prior to testing the antagonistic properties of compounds.
In Vitro Assay 1: Antagonism in Human Cell Line
Cells in medium (tryptophan free RPMI, 1% FCS, 2 mM Glutamine) supplemented with 150 μM kynurenic acid were grown for 20 hours in absence (negative control) or presence of increasing concentrations of test compounds (typical dilutions: 72 pmol/L, 0.25 nmol/L, 0.89 nmol/L; 3.1 nmol/L, 11 nmol/L, 38 nmol/L, 130 nmol/L, 470 nmol/L, 1.6 μmol/L, 5.7 μmol/L and 20 μmol/L in duplicates). As positive inhibition control cells supplemented with 150 μM kynurenic acid were incubated in presence of 5 μM Staurosporin. Normalization was done by positive and negative controls.
Firefly luciferase and Renilla activity was determined by the DualGlo Luciferase Assay System (Promega, #2920). Renilla activity was used to assess toxic effects of compounds.

AHR [2] = target: T1, AHR; experiment: In vitro assay 3: AHR-regulated CYP1A1 expression in human cell line (U937, qPCR); format: cell-based; conditions: human monocytic U937 cells, CYP1A1 expression induced with 200 μM KA, 6 hours, quantitative PCR; read-out: Assay 3: Hum CYP1A1 Antagonism IC50
Experimental: In Vitro Assay 3: AHR-Regulated CYP1A1 Expression in Human Cell Line
To assess the AHR inhibitory activity of the substances described in this application, the ability thereof to antagonise ligand-induced AHR gene regulation in a dose-dependent manner was quantified. For this purpose, quantitative PCR analysis was used to determine expression of the AHR-regulated gene CYP1A1 in a human monocytic U937 cell line upon stimulation with 200 μM KA in the presence and absence of AHR inhibitor. […] CYP1A1 expression was induced with 200 μM KA (positive control) in the presence or absence of the substances for 6 hours. Human U937 cells were typically incubated with eight different concentrations of the substances (1 nM, 3 nM, 10 nM, 30 nM, 100 nM, 300 nM, 1 μM and 3 μM) and analyzed in duplicate on the same microtitre plate. […] Unstimulated cells were used as the negative control. Taqman probes for human CYP1A1 (Hs01054797_g1) and human HPRT (Hs02800695_m1) were used to analyze fold expression of CYP1A1 of HPRT. Quantitation was performed on a Taqman SDS7900HT.

SMILES | pIC50 (AHR [1]) | pIC50 (AHR [2])
C[C@@H](CO)NC(=O)c1cc(-c2ccc(C(F)(F)F)nc2)nn(-c2cc(F)cc(F)c2)c1=O [Example 1, 2-(3,5-Difluorophenyl)-N-[(25)-1-hydroxypropan-2-yl]-3-oxo-6-[6-(trifluoromethyl)pyridin-3-yl]-2,3-dihydropyridazine-4-carboxamide] | 8.15 | 8.28
C[C@@H](CO)NC(=O)c1cc(-c2ccc(C(F)(F)F)nc2)nn(-c2cc(F)cc(Cl)c2)c1=O [Example 2, 2-(3-Chloro-5-fluorophenyl)-N-[(2S)-1-hydroxypropan-2-yl]-3-oxo-6-[6-(trifluoromethyl)pyridin-3-yl]-2,3-dihydropyridazine-4-carboxamide] | 7.63 | 7.43
C[C@@H](CO)NC(=O)c1cc(-c2ccc(C(F)(F)F)nc2)nn(-c2cccc(Cl)c2)c1=O [Example 4, 2-(3-Chlorophenyl)-N-[(2S)-1-hydroxypropan-2-yl]-3-oxo-6-[6-(trifluoromethyl)pyridin-3-yl]-2,3-dihydropyridazine-4-carboxamide] | 6.89 | 6.65
C[C@@H](CO)NC(=O)c1cc(-c2ccc(C(F)(F)F)nc2)nn(-c2ccccc2)c1=O [Example 5, N-[(2S)-1-Hydroxypropan-2-yl]-3-oxo-2-phenyl-6-[6-(trifluoromethyl)pyridin-3-yl]-2,3-dihydropyridazine-4-carboxamide] | 6.79 | 6.55
O=C(N[C@H]1CCC[C@@H]1O)c1cc(-c2ccc(C(F)(F)F)nc2)nn(-c2cccc(F)c2)c1=O [Example 6, 2-(3-Fluorophenyl)-N-[(1S,2S)-2-hydroxycyclopentyl]-3-oxo-6-[6-(trifluoromethyl)pyridin-3-yl]-2,3-dihydropyridazine-4-carboxamide] | 7.87 | 8.08
C[C@@H](NC(=O)c1cc(-c2ccc(C(F)(F)F)nc2)nn(-c2cccc(F)c2)c1=O)C(C)(C)O [Example 7, 2-(3-Fluorophenyl)-N-[(2R)-3-hydroxy-3-methylbutan-2-yl]-3-oxo-6-[6-(trifluoromethyl)pyridin-3-yl]-2,3-dihydropyridazine-4-carboxamide] | 7.59 | 7.32
O=C(N[C@H]1CCC[C@H]1O)c1cc(-c2ccc(C(F)(F)F)nc2)nn(-c2cccc(F)c2)c1=O [Example 8, 2-(3-Fluorophenyl)-N-[(1S,2R)-2-hydroxycyclopentyl]-3-oxo-6-[6-(trifluoromethyl)pyridin-3-yl]-2,3-dihydropyridazine-4-carboxamide] | 8.20 | 7.99
C[C@H](NC(=O)c1cc(-c2ccc(C(F)(F)F)nc2)nn(-c2cccc(F)c2)c1=O)C(C)(C)O [Example 9, 2-(3-Fluorophenyl)-N-[(2S)-3-hydroxy-3-methylbutan-2-yl]-3-oxo-6-[6-(trifluoromethyl)pyridin-3-yl]-2,3-dihydropyridazine-4-carboxamide] | 7.79 | 7.60
CC(C)(O)CNC(=O)c1cc(-c2ccc(C(F)(F)F)nc2)nn(-c2cccc(F)c2)c1=O [Example 10, 2-(3-Fluorophenyl)-N-(2-hydroxy-2-methylpropyl)-3-oxo-6-[6-(trifluoromethyl)pyridin-3-yl]-2,3-dihydropyridazine-4-carboxamide] | 7.14 | 6.96
C[C@@H](CO)NC(=O)c1cc(-c2cnc(C(F)(F)F)nc2)nn(-c2cccc(F)c2)c1=O [Example 11, 2-(3-Fluorophenyl)-N-[(2S)-1-hydroxypropan-2-yl]-3-oxo-6-[2-(trifluoromethyl)pyrimidin-5-yl]-2,3-dihydropyridazine-4-carboxamide] | 6.31 | 6.49
C[C@@H](CO)NC(=O)c1cc(-c2ccc(C(F)F)nc2)nn(-c2cccc(F)c2)c1=O [Example 13, 6-[6-(Difluoromethyl)pyridin-3-yl]-2-(3-fluorophenyl)-N-[(2S)-1-hydroxypropan-2-yl]-3-oxo-2,3-dihydropyridazine-4-carboxamide] | 6.80 | 6.70
C[C@@H](CO)NC(=O)c1cc(-c2ccc(C(F)(F)F)nc2)nn(-c2cccc(F)c2)c1=O [Example 18, 2-(3-Fluorophenyl)-N-[(2S)-1-hydroxypropan-2-yl]-3-oxo-6-[6-(trifluoromethyl)pyridin-3-yl]-2,3-dihydropyridazine-4-carboxamide] | 7.47 | 7.50
C[C@@H](NC(=O)c1cc(-c2ccc(N(C)C)nc2)nn(-c2cccc(F)c2)c1=O)C(C)(C)O [Example 19, 6-[6-(Dimethylamino)pyridin-3-yl]-2-(3-fluorophenyl)-N-[(2R)-3-hydroxy-3-methylbutan-2-yl]-3-oxo-2,3-dihydropyridazine-4-carboxamide] | 7.04 | 6.83
COc1ccc(-c2cc(C(=O)N[C@@H](C)CO)c(=O)n(-c3cccc(F)c3)n2)cn1 [Example 21, 2-(3-Fluorophenyl)-N-[(2S)-1-hydroxypropan-2-yl]-6-(6-methoxypyridin-3-yl)-3-oxo-2,3-dihydropyridazine-4-carboxamide] | 6.89 | 6.36
C[C@@H](NC(=O)c1cc(-c2ccc(C(F)F)nc2)nn(-c2cccc(F)c2)c1=O)C(C)(C)O [Example 22, 6-[6-(Difluoromethyl)pyridin-3-yl]-2-(3-fluorophenyl)-N-[(2R)-3-hydroxy-3-methylbutan-2-yl]-3-oxo-2,3-dihydropyridazine-4-carboxamide] | 7.20 | 6.73
N#C[C@@H](CO)NC(=O)c1cc(-c2ccc(C(F)(F)F)nc2)nn(-c2cccc(F)c2)c1=O [Example 39, N-[(1S)-1-Cyano-2-hydroxyethyl]-2-(3-fluorophenyl)-3-oxo-6-[6-(trifluoromethyl)pyridin-3-yl]-2,3-dihydropyridazine-4-carboxamide] | 7.64 | –
O=C(N[C@H]1COCC[C@H]1O)c1cc(-c2ccc(C(F)(F)F)nc2)nn(-c2cccc(F)c2)c1=O [Example 40, 1,5-anhydro-2,4-dideoxy-2-[({2-(3-fluorophenyl)-3-oxo-6-[6-(trifluoromethyl)pyridin-3-yl]-2,3-dihydropyridazin-4-yl}carbonyl)amino]-D-erythro-pentitol] | 7.48 | –
C[C@@H](CO)NC(=O)c1cc(-c2ccc(C(F)(F)F)cn2)nn(-c2cc(F)cc(F)c2)c1=O [Example 41, 2-(3,5-Difluorophenyl)-N-[(2S)-1-hydroxypropan-2-yl]-3-oxo-6-[5-(trifluoromethyl)pyridin-2-yl]-2,3-dihydropyridazine-4-carboxamide] | 7.02 | –
C[C@@H](CO)NC(=O)c1cc(-c2ccc(C(F)(F)F)cn2)nn(-c2ccccc2)c1=O [Example 42, N-[(2S)-1-Hydroxypropan-2-yl]-3-oxo-2-phenyl-6-[5-(trifluoromethyl)pyridin-2-yl]-2,3-dihydropyridazine-4-carboxamide] | 6.41 | –
C[C@@H](CO)NC(=O)c1cc(-c2ccc(C(F)(F)F)cn2)nn(-c2ccc(F)c(F)c2)c1=O [Example 43, 2-(3,4-Difluorophenyl)-N-[(2S)-1-hydroxypropan-2-yl]-3-oxo-6-[5-(trifluoromethyl)pyridin-2-yl]-2,3-dihydropyridazine-4-carboxamide] | 6.04 | –

Source: US11591311B2, “3-oxo-6-heteroaryl-2-phenyl-2,3-dihydropyridazine-4-carboxamides” (priority 2017, dated 2023)
